Test system: ex-vivo carotid artery segment of the mouse
Test: Ex-vivo carotid artery segment incubated with TEMPOL in vitro (EDD)
Parameters: species or system C57BL/6 male mice
Protocol: After 8 weeks, the mice were anesthetized with isoflurane and euthanized by bloodletting through cardiac puncture. The carotid artery was excised, the […] was inserted into the tip of a glass micropipette, and fixed with a nylon suture in a myograph chamber (DMTInc., Ann Arbor, Mich., USA) containing a buffered saline solution.
The artery was pressurized to 50 mm Hg at 37° C. and equilibrated for 45 minutes before the experiment. After sub-polar contraction was performed using phenylephrine (2 μM), the diameter of the arterial lumen was increased to the degree of response of acetylcholine (Ach: 1×10^−91×10^−4 M), and the arterial tube treated with acetylcholine was used to determine […] dilation by vasodilation in response to NO donor sodium nitroprusside (SNP: 1×10^−101×10^−4 M). Calculated according to the following formula, the vasodilation response was recorded as the actual diameter due to the difference in the maximum carotid artery diameter of the young and old animals, expressed as a percentage of the maximum reaction. The formula is as follows:
Dilation (%)=(Ds−Db)/(Dm−Db)×100%;
wherein, Dm is the maximum diameter of the lumen under a pressure of 50 mm Hg pressure; Db is the steady-state lumen diameter after pre-contraction before the first addition of the drug; Ds is the steady-state lumen diameter recorded after the drug is added.

What does the source list for `CC1(C)CC(O)CC(C)(C)N1[O]` [TEMPOL, 4-hydroxy-2,2,6,6-tetramethylpiperidin-1-yloxy]?
EDD of the carotid artery after incubation in vitro (old control group): restored the EDD; EDD of the carotid artery after incubation in vitro (other groups (young control, young and old experimental groups)): no effect
